# In patent US20190015397A1, “SUBSTANCE THAT INHIBITS P2Y12 RECEPTOR, FOR USE IN THE PREVENTIVE TREATMENT OF SYSTEMIC SCLEROSIS IN PATIENTS WITH RAYNAUD'S PHENOMENON AND A DYSIMMUNITY” (UNIVERSITÉ DE BORDEAUX, priority 2016, published 2019):
# Entries after “also recorded” stand apart in the source; their conditions may differ.
# Tests used:
# P2Y12 receptor = P2Y12 receptor (Homo sapiens, UniProt Q9H244); settings: cited from earlier work
# [1] = system: healthy endothelial cells; assay: TSLP production by healthy endothelial cells with platelets treated with acetylsalicylic acid; assay type: cell-based, human; settings: doses 0, 10 and 1000 pg/ml
# From the text: FIG. 8: represents the in vitro TSLP production (pg/ml) by healthy endothelial cells in the presence of platelets from a first healthy non sclerodermic patient a second non sclerodermic patient previously treated with acetylsalicylic acid (aspirin, pg/ml) at a dose of 0, 10 and 1000 pg/ml.
# The endothelial TSLP production is not inhibited by healthy patients platelets treated with acetylsalicylic acid (aspirin active metabolite) (see FIG. 8).
# [2] = system: mice models of scleroderma; settings: two mice models of scleroderma; cited from earlier work
# patients with SSc = settings: cited from earlier work
# [3] = system: human normal microvascular endothelial cells; assay: TSLP secretion by endothelial cells co-incubated with platelets from patients treated by P2Y12 inhibitors; assay type: cell-based; settings: clopidogrel 75 mg or ticagrelor 90 mg per day; platelets:EC 200:1, 24 hrs, ELISA
# Method: FIG. 7: represents TSLP secretion (in pg/ml: A, or in %: B) by endothelial cells after stimulation by, from left to right, platelets from healthy donors (HD, n=6), patients treated by clopidogrel (n=3) or by ticagrelor (n=4). […] Supernatants were harvested and frozen before analysis. TSLP concentration was determined by ELISA.
# Briefly, platelets purified from healthy normal subject, or non-sclerodermic patients treated with clopidogrel (75 mg par jour), or a non-sclerodermic patient treated with ticagrelor (90 mg par jour), for preventing atherothrombotic events, were co-incubated with human normal microvascular endothelial cells at a 200:1 ratio for 24 hrs. Cell culture supernatant was collected and TSLP content was measured using a dedicated commercial ELISA kit.
# [4] = system: human dermal microvascular endothelial cells (HDMEC); assay: TSLP production by human dermal microvascular EC stimulated with cytokines/reagents (ELISA, RTqPCR); assay type: cell-based
# Method: FIG. 4: IL1β-stimulated human dermal microvascular endothelial cells (HDMEC) produce TSLP. Normal HDMEC were purified from normal skin (plastic surgery) and stimulated 24 hrs with (A) cytokines potentially involved in SSc and the TLR4 agonist LPS or (B) increasing amount of IL1β (from 10 to 50 ng/ml) in complete MV-2 medium (M). Supernatants were harvested and TSLP content was measured by dedicated ELISA from eBioscience. Mean and SD from 3 (A) and 6 (B) independent experiments. (C) Quantification of TSLP mRNA from IL1β (50 ng/mL) activated HDMEC using RTqPCR, one representative experiment out of 3. *P<0.05 and ***P=0.0004 using Kruskal Wallis test.
# (§1) (A) 70000 HDMEC were cultured for 24 hrs in 24-well culture plate in MV-2 complete medium along with increasing amount of purified non-activated platelets (white bars) or adenosine diphosphate-activated platelets (black bars) (from 10 to 200 platelets for 1 HDMEC). […] (B) HDMEC were stimulated with ADP-activated platelets with or without anti-IL1β blocking antibody. Condition “platelet-” is a comparison without platelets. […] (C) HDMEC were stimulated with increasing doses of serotonin (from 0 to 90 ng/ml). A Wilcoxon test was used. (*p=0.013). (D) HDMEC were stimulated with ADP-activated platelets (ratio HDMEC:platelets=1:200) with or without blocking anti-IL1β with or without 5HT-receptors (5HTR2a and 5HTR2b) blocking antibodies. […] Supernatants were harvested and TSLP content was measured using dedicated ELISA. Results are mean and SEM from 3 independent experiments.
# (§2) TSLP levels in cell culture supernatants or serum was quantified using an ELISA kit from eBiosciences following the manufacturer's instruction.
# (§3) Human dermal microvascular EC were cultured in complete MV2 growth medium in a 96 well-plates with flat bottom (20000 cells per well in 200 μl) and allowed to stand overnight before adding different reagents (IL-1β, IL-4, IL-13, TNF-α, IFN-γ, LPS, 5HT or Tryptase) or platelets ADP-activated or not for 24 h at 37° C. […]
# human dermal fibroblasts = assay: Pro-fibrotic mRNA profile of activated human dermal fibroblasts (RT-qPCR); assay type: cell-based; settings: for MMP-1 mRNA expression / collagen1A1 mRNA / collagen/collagenase ratio (COL1A1 on MMP-1 mRNA): HD dermal fibroblasts; for MMP-1 mRNA expression / collagen1A1 mRNA / collagen/collagenase ratio (COL1A1 on MMP-1 mRNA) / MCP-1 mRNA expression: 48 h; for MCP-1 mRNA expression: human dermal fibroblasts
# Method: Human dermal fibroblasts were isolated from healthy skin and incubated 48 h with DMEM, IL1β, recombinant TSLP or TGFβ1. (A) Quantification of Col1A1 mRNA from activated fibroblasts using RT-qPCR from 3 different healthy donors was expressed in ΔΔCT with DMEM as the baseline condition. (B) Quantification of MMP-1 mRNA from activated fibroblasts using RTqPCR, results of 3 different healthy donors. (C) Ratio of COL1A1 on MMP-1 (collagenase) mRNA from activated normal fibroblasts using RT-qPCR, results of 3 different healthy donors (left panel) and 3 SSc patients (right panel). Among SSc patients, two patients were dcSSc and fibroblasts came from TSLP+ fibrotic skin (patients #1 and 2), the other was a IcSS and fibroblasts came from TSLP-low fibrotic skin (patient #3). (D) Quantification of MCP-1 from activated normal fibroblasts using RT-qPCR, results of 3 different donors. Kruskal Wallis test was used to compare the mean of mRNA expression levels. *P<0.05.
# Fibroblasts were obtained from […] skin biopsy samples from 3 healthy donors as described elsewhere (Truchetet M E, Brembilla N C, Montanari E, et al. Interleukin-17A+ cell counts are increased in systemic sclerosis skin and their number is inversely correlated with the extent of skin involvement. Arthritis Rheum 2013; 65:1347-1356 ([24])).
# Total RNA was isolated from trypsinized fibroblasts with the NucleoSpin RNA II extraction system (Macherey-Nagel, Duren, Germany) and cDNA synthesized from […] of total RNA using random hexamers and Superscript III reverse transcriptase (Invitrogen, Carlsbad, Calif.) according to manufacturer's instructions. Gene expression was quantified using SYBR green performed on a SDS 7900 HT instrument (Applied Biosystems). Specific primer pairs for each gene described in supplementary material (Datta A, Alexander R, Sulikowski M G, et al. Evidence for a functional thymic stromal lymphopoietin signaling axis in fibrotic lung disease. J Immunol 2013; 191:4867-4879 ([25]); Brembilla N C, Montanari E, Truchetet M E, et al. Th17 cells favor inflammatory responses while inhibiting type I collagen deposition by dermal fibroblasts: differential effects in healthy and systemic sclerosis fibroblasts. Arthritis Res Ther 2013; 15:R151 ([26]); Yoda A, Yoda Y, Chiaretti S, et al. Functional screening identifies CRLF2 in precursor B-cell acute lymphoblastic leukemia. Proc Natl Acad Sci USA 2010; 107:252-257 ([27]); Le Q T, Gomez G, Zhao W, et al. Processing of human protryptase in mast cells involves cathepsins L, B, and C. J Immunol 2011; 187:1912-1918 ([28])). Each reaction was performed in triplicates. […] Oligonucleotides were obtained from Sigma-Aldrich. Differences were calculated with the threshold cycle (Ct) and the comparative Ct method for relative quantification.
# [5] = system: human dermal microvascular endothelial cells (HDMEC); assay: Platelet-induced TSLP production in platelet/EC co-culture with blocking antibodies; assay type: cell-based; settings: ADP-activated platelets
# Method: as §1, §2, §3
# P2Y12 receptor, sequence (Q9H244 whole entry): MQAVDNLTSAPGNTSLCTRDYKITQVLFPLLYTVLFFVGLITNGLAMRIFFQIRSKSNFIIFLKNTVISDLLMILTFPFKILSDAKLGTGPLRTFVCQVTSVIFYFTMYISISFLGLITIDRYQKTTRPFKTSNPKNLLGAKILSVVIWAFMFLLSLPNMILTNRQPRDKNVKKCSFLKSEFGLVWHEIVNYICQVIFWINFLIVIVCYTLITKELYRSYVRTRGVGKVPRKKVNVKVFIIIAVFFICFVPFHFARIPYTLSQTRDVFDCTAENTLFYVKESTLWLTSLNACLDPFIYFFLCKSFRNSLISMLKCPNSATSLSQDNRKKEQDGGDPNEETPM
molecule,measurement,setting,value
CCCSc1nc(N[C@@H]2C[C@H]2c2ccc(F)c(F)c2)c2nnn([C@@H]3C[C@H](O)[C@@H](O)[C@H]3O)c2n1 [AR-C124910XX],potency of active metabolite relative to ticagrelor,P2Y12 receptor,approximately equipotent
CC(=O)Oc1ccccc1C(=O)O [acetylsalicylic acid],endothelial TSLP production with acetylsalicylic acid-treated platelets,[1],not inhibited
same,endothelial TSLP production with acetylsalicylic acid-treated platelets,[1]; listed as aspirin,not observed
COC(=O)[C@H](c1ccccc1Cl)N1CCc2sccc2C1 [clopidogrel],fibrosis,[2],reduces fibrosis
same,markers of endothelial function and new digital ulcers,patients with SSc,may worsen markers of endothelial function and associate with development of new digital ulcers
same,TSLP production by endothelial cells induced by platelets of treated patients,[3],failed to induce TSLP production; also recorded: can block the pro-fibrotic TSLP molecule expression
same,dermal thickness,bleomycin-injected mice; clopidogrel 25 mg/kg/d per os from 15 days before bleomycin 30 μg/mice s.c.,reduces the dermal thickness
same,skin fibrotic effect of Bleomycin,bleomycin-injected mice; clopidogrel pre-treatment 25 mg/kg/d per os,significantly reduces
same,development of digital ulcers,bleomycin-injected mice; preventive treatment of mice before the establishment of fibrosis,not associated with development of digital ulcers
"NCCc1c[nH]c2ccc(O)cc12 [serotonin, reference compound]",TSLP production by dermal microvascular EC,"[4]; serotonin at 90 ng/ml, vs 0.75±0.5 pg/ml for EC alone",58.9 ± 11.4 pg/mL
CCCSc1nc(N[C@@H]2C[C@H]2c2ccc(F)c(F)c2)c2nnn([C@@H]3C[C@H](OCCO)C(O)C3O)c2n1 (stereo partly drawn) [ticagrelor],TSLP production by endothelial cells induced by platelets of treated patients,[3],failed to induce TSLP production
IL1β: pro-inflammatory cytokine used as stimulus,TSLP production by dermal microvascular EC (protein),"[4]; IL1β stimulation 24 hrs, vs 7.4±3.5 pg/ml with dermal microvascular EC alone",651.7 ± 95.4 pg/mL
same,TSLP expression at the transcriptomic level,"[4]; RTqPCR, IL1β 50 ng/mL",increase the expression of TSLP
same,MMP-1 mRNA expression,human dermal fibroblasts,5.7±1.7 fold increase vs medium condition
same,collagen1A1 mRNA,human dermal fibroblasts,1.7±0.4 fold increase vs medium condition
same,collagen/collagenase ratio (COL1A1 on MMP-1 mRNA),human dermal fibroblasts,0.47±0.3 fold increase vs medium condition
same,MCP-1 mRNA expression,human dermal fibroblasts,52.7±11.2 fold increase vs medium condition
TGFβ: cytokine used as control condition on fibroblasts,MMP-1 mRNA expression,human dermal fibroblasts,0.56±0.14 fold increase vs medium condition
same,collagen1A1 mRNA,human dermal fibroblasts,5.35±0.9 fold increase vs medium condition
same,MCP-1 mRNA expression,human dermal fibroblasts,0.31±0.09 fold increase vs medium condition
canakinumab: monoclonal antibody blocking IL-1β,platelet-induced TSLP production,"[5]; FIG. 5B, blocking antibody 10 μg/mL, vs 64.8±3.9 pg/ml without antibody",20.9 ± 3.7 pg/mL
same,TSLP production in platelet/EC co-culture,"[5]; HDMEC:platelets=1:200, FIG. 5D, vs 649±13.8 pg/ml in platelet/EC",335.1 ± 28.5 pg/mL
rTSLP: recombinant Thymic Stromal Lymphopoietin,MMP-1 mRNA expression,human dermal fibroblasts,0.59±0.06 fold increase vs medium condition
same,collagen1A1 mRNA,human dermal fibroblasts,1.5±0.06 fold increase vs medium condition
same,collagen/collagenase ratio (COL1A1 on MMP-1 mRNA),human dermal fibroblasts,2.6±0.3 fold increase vs medium condition
same,collagen/collagenase ratio in SSc fibroblasts,"human dermal fibroblasts; fibroblasts from TSLP+ fibrotic skin of two dcSSc patients, compared to lcSSc patient or normal fibroblasts",lower collagen/collagenase ratio
same,MCP-1 mRNA expression,human dermal fibroblasts,0.48±0.02 fold increase vs medium condition
